# From patent publication US20250312462A1, “PAK1 DEGRADERS AND METHODS OF USE THEREOF” (INSTITUTE FOR CANCER RESEARCH D/B/A THE RESEARCH INSTITUTE …, priority 2022, published 2025)
# What was measured:
# [1] = molecular target: MLK3 (Homo sapiens, UniProt Q16584); assay: KINOMEscan; details: read-out: Percent Control
# Method: (§1) The kinase engagement assay (KINOMEscan®) was performed by DiscoverX assessing binding abilities toward a set of kinases.
# [2] = molecular target: CSNK1D (Homo sapiens, UniProt P48730); assay: KINOMEscan; details: read-out: Percent Control
# Method: as §1
# [3] = molecular target: ACVRL1 (Homo sapiens, UniProt P37023); assay: KINOMEscan; details: read-out: Percent Control
# Method: as §1
# [4] = molecular target: TBK1 (Homo sapiens, UniProt Q9UHD2); assay: KINOMEscan; details: read-out: Percent Control
# Chain of TBK1 (Q9UHD2 whole entry): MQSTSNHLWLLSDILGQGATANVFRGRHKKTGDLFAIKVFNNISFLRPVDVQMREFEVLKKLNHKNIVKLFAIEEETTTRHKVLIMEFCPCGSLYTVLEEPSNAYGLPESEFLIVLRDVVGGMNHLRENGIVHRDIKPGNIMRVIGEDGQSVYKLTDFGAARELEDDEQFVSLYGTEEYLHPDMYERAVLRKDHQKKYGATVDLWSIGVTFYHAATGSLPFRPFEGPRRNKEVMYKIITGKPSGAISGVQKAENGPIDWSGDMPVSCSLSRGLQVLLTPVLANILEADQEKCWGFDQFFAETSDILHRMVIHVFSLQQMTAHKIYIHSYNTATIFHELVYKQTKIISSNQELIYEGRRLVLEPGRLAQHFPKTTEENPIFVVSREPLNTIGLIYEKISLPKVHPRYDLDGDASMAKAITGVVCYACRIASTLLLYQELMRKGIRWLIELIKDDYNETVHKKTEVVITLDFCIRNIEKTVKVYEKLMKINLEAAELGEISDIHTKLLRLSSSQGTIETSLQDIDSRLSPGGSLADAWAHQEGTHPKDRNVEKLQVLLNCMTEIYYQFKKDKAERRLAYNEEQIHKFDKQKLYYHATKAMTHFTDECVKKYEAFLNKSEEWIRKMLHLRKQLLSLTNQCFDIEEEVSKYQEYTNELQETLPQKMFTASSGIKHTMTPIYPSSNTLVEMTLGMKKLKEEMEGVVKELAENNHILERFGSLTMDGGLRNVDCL
# Method: as §1
# [5] = molecular target: PIK3C2G (Homo sapiens, UniProt O75747); assay: KINOMEscan; details: read-out: Percent Control
# Method: as §1
# [6] = molecular target: ZAK (Homo sapiens, UniProt Q9NYL2); assay: KINOMEscan; details: read-out: Percent Control
# Method: as §1
# [7] = molecular target: ULK3 (Homo sapiens, UniProt Q6PHR2); assay: KINOMEscan; details: read-out: Percent Control
# Method: as §1
# [8] = molecular target: MEK6 (Homo sapiens, UniProt P52564); assay: KINOMEscan; details: read-out: Percent Control
# Chain of MEK6 (P52564 whole entry, the tested form may be a part): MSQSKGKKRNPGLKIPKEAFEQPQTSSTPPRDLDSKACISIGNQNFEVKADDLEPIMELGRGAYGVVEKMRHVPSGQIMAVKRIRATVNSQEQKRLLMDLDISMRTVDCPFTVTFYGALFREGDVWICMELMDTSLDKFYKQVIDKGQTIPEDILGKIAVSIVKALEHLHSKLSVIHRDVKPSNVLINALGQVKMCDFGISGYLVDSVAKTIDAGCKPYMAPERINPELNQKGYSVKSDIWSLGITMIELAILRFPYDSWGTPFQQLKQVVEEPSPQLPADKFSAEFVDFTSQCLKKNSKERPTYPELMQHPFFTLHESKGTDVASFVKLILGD
# Method: as §1
# [9] = molecular target: PAK1 (Homo sapiens, UniProt Q13153); assay: Z'-LYTE FRET kinase inhibition assay; format: biochemical; set-up: human recombinant PAK1 (kinase domain); purchased Invitrogen PV2830
# Chain of PAK1 (Q13153 270-521 limits assumed): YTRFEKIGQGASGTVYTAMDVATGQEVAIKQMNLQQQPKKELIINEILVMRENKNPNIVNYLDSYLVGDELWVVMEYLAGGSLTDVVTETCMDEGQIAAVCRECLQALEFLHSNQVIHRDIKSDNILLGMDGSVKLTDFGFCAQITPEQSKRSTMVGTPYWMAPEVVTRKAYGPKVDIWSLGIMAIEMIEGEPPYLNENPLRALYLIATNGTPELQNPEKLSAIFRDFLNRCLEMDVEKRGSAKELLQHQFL
# Method: The activity/inhibition of human recombinant PAK1 (kinase domain) or PAK2 (full length) was determined by measuring the phosphorylation of a FRET peptide substrate (Ser/Thr19) labeled with Coumarin and Fluorescein using Z′-LYTE™ assay (Invitrogen). The 10 μL assay mixtures contained 50 mM HEPES (pH 7.5), 0.01% Brij-35, 10 mM MgCl2, 1 mM EGTA, 2 μM FRET peptide substrate, and PAK enzyme (20 pM PAK1; 50 pM PAK2). Incubations were carried out at 22° C. in black polypropylene 384-well plates (Corning Costar). […] Following the 60-minute incubation, the assay mixtures were quenched by the addition of 5 μL of Z′-LYTE™ development reagent, and 1 hour later the emissions of Coumarin (445 nm) and Fluorescein (520 nm) were determined after excitation at 400 nm using an Envision plate reader (Perkin Elmer).
# [10] = molecular target: ADCK4 (Homo sapiens, UniProt Q96D53); assay: KINOMEscan; details: read-out: Percent Control
# Chain of ADCK4 (Q96D53 whole entry): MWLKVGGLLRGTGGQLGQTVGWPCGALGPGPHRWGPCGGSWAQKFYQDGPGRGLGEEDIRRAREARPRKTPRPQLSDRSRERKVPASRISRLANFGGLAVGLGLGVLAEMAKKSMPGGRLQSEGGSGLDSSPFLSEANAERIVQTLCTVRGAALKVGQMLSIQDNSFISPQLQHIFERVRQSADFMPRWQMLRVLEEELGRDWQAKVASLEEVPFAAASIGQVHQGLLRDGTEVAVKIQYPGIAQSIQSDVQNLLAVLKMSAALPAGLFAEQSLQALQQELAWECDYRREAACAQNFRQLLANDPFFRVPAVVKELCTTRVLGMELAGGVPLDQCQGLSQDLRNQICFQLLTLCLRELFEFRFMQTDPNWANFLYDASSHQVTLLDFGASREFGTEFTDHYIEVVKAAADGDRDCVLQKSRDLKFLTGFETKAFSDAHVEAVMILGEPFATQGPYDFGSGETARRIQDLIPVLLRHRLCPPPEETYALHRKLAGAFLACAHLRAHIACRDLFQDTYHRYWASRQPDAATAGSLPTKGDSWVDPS
# Method: as §1
# [11] = molecular target: RPS6KA4(Kin.Dom.1-N-terminal) (Homo sapiens, UniProt O75676); assay: KINOMEscan; details: read-out: Percent Control
# Chain of RPS6KA4(Kin.Dom.1-N-terminal) (O75676 33-301 limits assumed): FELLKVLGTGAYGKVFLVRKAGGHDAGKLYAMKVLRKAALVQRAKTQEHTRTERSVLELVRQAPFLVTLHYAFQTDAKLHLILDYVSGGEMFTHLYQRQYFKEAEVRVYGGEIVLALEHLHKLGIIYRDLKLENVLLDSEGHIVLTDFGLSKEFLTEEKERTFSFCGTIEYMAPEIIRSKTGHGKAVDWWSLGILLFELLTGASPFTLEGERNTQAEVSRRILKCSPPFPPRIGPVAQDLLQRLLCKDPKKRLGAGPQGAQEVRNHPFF
# Method: as §1
# [12] = molecular target: PIK3CA(M1043I) (Homo sapiens, UniProt P42336, M1043I); assay: KINOMEscan; details: read-out: Percent Control
# Chain of PIK3CA(M1043I) (P42336 whole entry M1043I): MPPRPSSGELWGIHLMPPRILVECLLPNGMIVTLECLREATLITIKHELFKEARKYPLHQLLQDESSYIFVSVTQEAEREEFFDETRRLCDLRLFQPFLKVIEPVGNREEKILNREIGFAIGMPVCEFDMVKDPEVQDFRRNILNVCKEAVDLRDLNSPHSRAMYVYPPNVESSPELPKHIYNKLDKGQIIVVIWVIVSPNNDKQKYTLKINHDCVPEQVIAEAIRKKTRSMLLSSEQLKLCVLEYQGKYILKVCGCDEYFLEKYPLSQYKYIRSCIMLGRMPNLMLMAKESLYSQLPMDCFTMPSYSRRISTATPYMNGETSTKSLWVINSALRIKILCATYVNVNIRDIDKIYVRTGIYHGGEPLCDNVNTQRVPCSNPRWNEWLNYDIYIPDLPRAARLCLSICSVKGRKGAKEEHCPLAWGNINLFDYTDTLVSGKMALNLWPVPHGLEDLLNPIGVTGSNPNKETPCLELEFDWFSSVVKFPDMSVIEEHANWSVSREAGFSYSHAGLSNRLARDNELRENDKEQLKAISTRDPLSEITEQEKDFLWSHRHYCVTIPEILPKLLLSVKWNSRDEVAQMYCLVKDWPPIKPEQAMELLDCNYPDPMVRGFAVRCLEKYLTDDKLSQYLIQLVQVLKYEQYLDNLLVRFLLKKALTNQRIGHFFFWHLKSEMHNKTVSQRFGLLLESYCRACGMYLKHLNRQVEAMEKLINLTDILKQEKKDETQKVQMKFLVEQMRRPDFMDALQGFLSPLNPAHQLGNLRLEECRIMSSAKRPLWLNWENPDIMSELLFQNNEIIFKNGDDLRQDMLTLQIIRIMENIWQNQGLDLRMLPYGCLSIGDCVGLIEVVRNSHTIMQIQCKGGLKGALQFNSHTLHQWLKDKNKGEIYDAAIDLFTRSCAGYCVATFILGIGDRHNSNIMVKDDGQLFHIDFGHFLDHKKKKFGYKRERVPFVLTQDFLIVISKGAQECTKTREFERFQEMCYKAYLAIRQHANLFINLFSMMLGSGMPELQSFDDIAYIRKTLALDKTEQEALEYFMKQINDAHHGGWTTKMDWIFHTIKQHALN
# Method: as §1
# [13] = molecular target: GRK3 (Homo sapiens, UniProt P35626); assay: KINOMEscan; details: read-out: Percent Control
# Chain of GRK3 (P35626 whole entry): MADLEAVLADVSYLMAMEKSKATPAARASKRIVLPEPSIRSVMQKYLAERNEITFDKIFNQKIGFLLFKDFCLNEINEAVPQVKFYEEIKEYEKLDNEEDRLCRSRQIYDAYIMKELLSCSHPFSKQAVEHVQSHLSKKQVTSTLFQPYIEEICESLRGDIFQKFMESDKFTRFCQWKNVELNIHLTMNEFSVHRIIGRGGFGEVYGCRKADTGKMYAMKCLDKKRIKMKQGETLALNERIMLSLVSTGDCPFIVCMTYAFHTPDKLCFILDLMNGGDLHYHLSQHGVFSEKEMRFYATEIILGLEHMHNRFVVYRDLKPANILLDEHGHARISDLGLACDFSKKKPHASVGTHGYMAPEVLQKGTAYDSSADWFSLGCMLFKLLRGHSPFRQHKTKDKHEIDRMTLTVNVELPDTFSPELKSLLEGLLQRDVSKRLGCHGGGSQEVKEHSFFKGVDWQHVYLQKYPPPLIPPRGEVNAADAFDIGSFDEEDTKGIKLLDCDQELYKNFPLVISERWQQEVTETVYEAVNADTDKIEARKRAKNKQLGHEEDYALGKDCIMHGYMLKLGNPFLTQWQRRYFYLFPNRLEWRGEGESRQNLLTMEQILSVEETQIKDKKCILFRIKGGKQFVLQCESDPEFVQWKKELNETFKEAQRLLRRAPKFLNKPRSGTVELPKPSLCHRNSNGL
# Method: as §1
# [14] = molecular target: DRAK2 (Homo sapiens, UniProt O94768); assay: KINOMEscan; details: read-out: Percent Control
# Chain of DRAK2 (O94768 whole entry): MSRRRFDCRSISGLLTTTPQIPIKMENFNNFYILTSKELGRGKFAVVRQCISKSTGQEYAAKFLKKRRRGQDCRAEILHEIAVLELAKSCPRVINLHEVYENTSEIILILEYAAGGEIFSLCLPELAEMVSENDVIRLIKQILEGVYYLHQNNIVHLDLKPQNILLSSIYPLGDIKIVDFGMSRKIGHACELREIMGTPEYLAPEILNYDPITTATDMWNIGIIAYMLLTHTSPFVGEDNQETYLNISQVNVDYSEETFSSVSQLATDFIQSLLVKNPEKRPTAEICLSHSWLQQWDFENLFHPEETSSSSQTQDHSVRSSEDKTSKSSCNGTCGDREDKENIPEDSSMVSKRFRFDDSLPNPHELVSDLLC
# Method: as §1
# [15] = molecular target: AMPK-alpha2 (Homo sapiens, UniProt P54646); assay: KINOMEscan; details: read-out: Percent Control
# Method: as §1
# [16] = molecular target: TYK2(JH1domain-catalytic) (Homo sapiens, UniProt P29597); assay: KINOMEscan; details: read-out: Percent Control
# Chain of TYK2(JH1domain-catalytic) (P29597 897-1176 limits assumed): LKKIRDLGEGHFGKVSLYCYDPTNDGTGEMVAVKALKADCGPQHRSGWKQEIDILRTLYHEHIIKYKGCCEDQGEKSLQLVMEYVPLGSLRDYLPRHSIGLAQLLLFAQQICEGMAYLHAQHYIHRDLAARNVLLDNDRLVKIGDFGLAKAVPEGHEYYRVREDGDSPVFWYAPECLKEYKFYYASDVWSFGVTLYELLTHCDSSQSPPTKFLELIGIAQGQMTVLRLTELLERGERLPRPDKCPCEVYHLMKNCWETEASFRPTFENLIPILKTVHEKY
# Method: as §1
# Chain of CSNK1D (P48730 whole entry): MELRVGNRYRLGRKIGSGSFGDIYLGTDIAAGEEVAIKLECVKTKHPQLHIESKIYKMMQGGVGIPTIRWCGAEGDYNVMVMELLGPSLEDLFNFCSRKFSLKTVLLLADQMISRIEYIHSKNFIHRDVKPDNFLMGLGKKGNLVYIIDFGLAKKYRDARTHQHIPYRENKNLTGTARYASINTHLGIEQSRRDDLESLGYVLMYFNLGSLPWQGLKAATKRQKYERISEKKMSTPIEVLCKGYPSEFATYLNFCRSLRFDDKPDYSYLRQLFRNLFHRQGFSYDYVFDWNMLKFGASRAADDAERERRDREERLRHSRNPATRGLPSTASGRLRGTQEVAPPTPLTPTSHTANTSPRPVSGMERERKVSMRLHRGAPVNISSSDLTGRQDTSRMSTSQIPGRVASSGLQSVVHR
structure (smiles),measurement,setting,value
"O=C1CCC(N2C(=O)c3cccc(NCCCCCCCCNC(=O)N4CC[C@H](NC5=Nc6cc(F)ccc6N(CC(F)F)c6ccc(Cl)cc65)C4)c3C2=O)C(=O)N1 (stereo partly drawn) [BJG-05-039, (3S)-3-((2-Chloro-5-(2,2-difluoroethyl)-8-fluoro-5H-dibenzo[b,e][1,4]diazepin-11-yl)amino)-N-(8-((2-(2,6-dioxopiperidin-3-yl)-1,3-dioxoisoindolin-4-yl)amino)octyl)pyrrolidine-1-carboxamide]",remaining binding at 10 µM,[1],88%
same,remaining binding at 10 µM,[2],60%
same,remaining binding at 10 µM,[3],71%
same,remaining binding at 10 µM,[4],100%
same,remaining binding at 10 µM,[5],95%
same,remaining binding at 10 µM,[6],97%
same,remaining binding at 10 µM,[7],92%
same,remaining binding at 10 µM,[8],86%
same,IC50,[9],233 nM
same,Increase of selectivity over PAK2 relative to NVS-PAK-1,[9]; from Table 1,more than ten-fold
same,PAK1 inhibitory activity and selectivity of conjugate,[9]; vs PAK2 and PAK4,retained PAK1 inhibitory activity and selectivity
same,remaining binding at 10 µM,[10],63%
same,remaining binding at 10 µM,[11],59%
same,remaining binding at 10 µM,[12],100%
same,remaining binding at 10 µM,[13],92%
same,remaining binding at 10 µM,[14],58%
same,remaining binding at 10 µM,[15],100%
same,remaining binding at 10 µM,[16],91%
